{
  "source": "patent US20190091177A1",
  "about": "“METHOD OF TREATING SELECTED PATIENT POPULATION EXPERIENCING DRAVET SYNDROME” (ZOGENIX INTERNATIONAL LIMITED, priority 2017, published 2019)",
  "key": {"[1]": {"tested_on": "patients with Dravet syndrome", "experiment": "Study 1: Phase 3 randomized, double blind, placebo controlled study (ZX008-1501/ZX008-1502) of liquid fenfluramine formulation as adjunctive therapy", "assay_type": "in vivo, human", "procedure": "The first 119 subjects to be randomized in both identical studies combined were analyzed and reported as Study 1 (FIG. 1), covered by a Statistical Analysis Plan (SAP).\nPrimary and key secondary endpoints in the Study 1 SAP were pre-determined. All patients were treated twice per day over a period of 14 weeks using an oral syringe to administer the formulation. The treatment period included a two-week titration period and a 12-week maintenance period.\nThe initial results of Study 1 are outlined below. The randomized, double blind, placebo controlled, Phase 3 study enrolled 119 patients across sites in the United States, Canada, Europe and Australia. The median age of patients was 8 years, the mean age of patients was 9 years (range, 2-18 years) (FIG. 2).\nPatients were titrated to their target dose over two weeks, and then remained at that fixed dose for 12 weeks. The mean baseline convulsive seizure frequency across the study groups was approximately 40 seizures per month. 110 (92%) patients completed the study (85% 0.8 mg/kg/day; 100% 0.2 mg/kg/day; 93% placebo).\nThe proportion of patients who achieved ≥75% seizure reductions, a secondary (non-key) efficacy measure, is also presented.\nThe mean number of convulsive seizure free days, defined as a day for which diary data are available and no convulsive seizures have been reported, was determined for each treatment group during the Baseline and T+M Periods. Using a parametric analysis, comparisons for the ZX008 groups to placebo were estimated from an ANCOVA model with treatment group (3 levels) and age group (<6 years, ≥6 years) as factors, log baseline number of convulsive seizure free days as a covariate and log convulsive seizure free days (Titration+Maintenance, or Maintenance Period) as response. The mean (SD) number of convulsive seizure free days per 28 days during the Baseline Period was 12.6 (7.68), 15.7 (6.80), and 14.6 (7.59) for the placebo, 0.2 and 0.8 mg/kg/day groups, respectively. […]"}, "[2]": {"tested_on": "patients with Dravet syndrome", "settings": "cited from earlier work; for >50% Reduction in Seizures (patients) / Seizure-free Patients: fenfluramine and valproate, average daily dose 0.34 mg/kg/day for 1 to 22 years, 12 patients, 0.34 mg/kg/day"}, "[3]": {"settings": "long-term fenfluramine treatment"}},
  "note": "Read-outs that look alike come from different tables or passages of the source.",
  "data": [
    {"smiles": "CCNC(C)Cc1cccc(C(F)(F)F)c1", "note": "(racemic) [Fenfluramine, (RS)-N-ethyl-1-[3-(trifluoromethyl)phenyl]propan-2-amine]", "values": [
      {"measurement": "Mean (SD) non-convulsive seizure frequency per 28 days at the end of the T+M Period", "setting": "[1]; 0.2 mg/kg/day, baseline 193.6 (478.45)", "value": "93.7 (219.69) per 28 days"},
      {"measurement": "Reduction from Baseline in non-convulsive seizure frequency (%, [SD])", "setting": "[1]; 0.8 mg/kg/day, end of T+M Period", "value": "59.1% (40.14)"},
      {"measurement": "Mean (SD) non-convulsive seizure frequency per 28 days at the end of the T+M Period", "setting": "[1]; 0.8 mg/kg/day, baseline 335.2 (758.58)", "value": "127.9 (297.39) per 28 days"},
      {"measurement": ">50% Reduction in Seizures (patients)", "setting": "[2]", "value": "9/12 (75%)"},
      {"measurement": "Seizure-free Patients", "setting": "[2]", "value": "8/12 (66%)"},
      {"measurement": ">50% Reduction in Seizures (patients)", "setting": "[2]; listed as fenfluramine", "value": 75, "unit": "%"},
      {"measurement": "Seizure-free Patients", "setting": "[2]; listed as fenfluramine", "value": 66.6, "unit": "%"},
      {"measurement": "Echocardiography monitoring for possible heart valve defects", "setting": "[2]; [3]", "value": "No clinically relevant defects were identified"},
      {"measurement": "Effect on types of seizures", "setting": "[2]; [3]", "value": "effectively reduced the incidence of all types of seizures"}
    ]}
  ]
}
